Experimental data published in PMC10877733, “Discovery and Characterization of VU0542270, the First Selective Inhibitor of Vascular Kir6.1/SUR2B KATP Channels” (Molecular Pharmacology, 2024).
pIC50: −log10 of the molar value.

Columns and labels:
Type in all cases: cell-based
[1] = biological target: T1, Kir4.2 (Homo sapiens, UniProt Q99712); assay: Thallium flux selectivity assay Kir4.2
T1 construct: expressed in transfected cells
T1 sequence (Q99712 1-375): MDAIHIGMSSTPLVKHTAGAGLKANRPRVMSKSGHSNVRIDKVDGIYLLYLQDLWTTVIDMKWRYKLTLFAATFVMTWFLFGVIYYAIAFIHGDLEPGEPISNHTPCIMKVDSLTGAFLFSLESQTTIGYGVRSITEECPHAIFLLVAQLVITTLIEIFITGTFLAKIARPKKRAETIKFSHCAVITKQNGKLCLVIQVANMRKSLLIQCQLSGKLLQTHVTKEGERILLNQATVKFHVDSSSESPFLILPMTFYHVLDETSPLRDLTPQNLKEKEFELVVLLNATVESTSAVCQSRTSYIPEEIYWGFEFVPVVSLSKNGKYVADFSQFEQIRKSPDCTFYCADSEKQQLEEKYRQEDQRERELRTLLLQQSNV
Protocol: (§1) Quantitative thallium flux assays of Kir6.1/SUR2B activity were performed essentially as described previously for Kir6.2/SUR1 ([Raphemot et al., 2014]; [Kharade et al., 2019]). Stable T-Rex-HEK293-Kir6.1/SUR2B cells or transiently transfected HEK293T cells were plated in polyamine-coated, clear-bottomed, black-walled 384-well plates and were cultured (37°C/5% CO2) overnight in Dulbecco’s modified Eagle’s medium (Gibco, Carlsbad, CA, 11995-065) containing 10% FBS (2 mM Penicillin-Streptomycin). The following day, cells were washed with assay buffer (i.e., Hanks’ balanced salt solution/20 mM HEPES) and loaded for 1 hour with thallium sensor dye Brilliant Thallium (Ion Bioscience, San Marcos, TX) at room temperature. Dye-loaded cells were washed with assay buffer and transferred to a Panoptic Kinetic Imaging Plate Reader (Wavefront Bioscience, Franklin, TN). Control and test compound treatments were for 4 minutes prior to adding 0.5 mM chloride-free thallium stimulus buffer (Ion Bioscience) to initiate thallium flux. […] Selectivity assays against other Kir channels were performed essentially as described previously ([Kharade et al., 2018]; [McClenahan et al., 2022]).

[2] = biological target: T2, Kir3.1/Kir3.4 (Homo sapiens, UniProt P48544+P48549); assay: Thallium flux selectivity assay Kir3.1/Kir3.4
T2 construct: expressed in transfected cells
T2 sequence (P48549 1-501): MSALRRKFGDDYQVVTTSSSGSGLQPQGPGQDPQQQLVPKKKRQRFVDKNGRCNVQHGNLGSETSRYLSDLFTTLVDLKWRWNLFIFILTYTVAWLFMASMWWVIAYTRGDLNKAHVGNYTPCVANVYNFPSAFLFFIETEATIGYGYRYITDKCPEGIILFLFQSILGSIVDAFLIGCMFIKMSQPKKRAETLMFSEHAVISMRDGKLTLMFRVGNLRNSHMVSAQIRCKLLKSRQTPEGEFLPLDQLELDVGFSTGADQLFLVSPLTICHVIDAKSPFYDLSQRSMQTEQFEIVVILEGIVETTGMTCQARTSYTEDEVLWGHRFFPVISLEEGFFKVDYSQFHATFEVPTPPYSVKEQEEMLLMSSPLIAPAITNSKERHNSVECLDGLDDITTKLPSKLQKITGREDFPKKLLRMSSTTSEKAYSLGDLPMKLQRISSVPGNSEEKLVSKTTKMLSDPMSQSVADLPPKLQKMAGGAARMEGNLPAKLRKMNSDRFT
T2 sequence (P48544 1-419): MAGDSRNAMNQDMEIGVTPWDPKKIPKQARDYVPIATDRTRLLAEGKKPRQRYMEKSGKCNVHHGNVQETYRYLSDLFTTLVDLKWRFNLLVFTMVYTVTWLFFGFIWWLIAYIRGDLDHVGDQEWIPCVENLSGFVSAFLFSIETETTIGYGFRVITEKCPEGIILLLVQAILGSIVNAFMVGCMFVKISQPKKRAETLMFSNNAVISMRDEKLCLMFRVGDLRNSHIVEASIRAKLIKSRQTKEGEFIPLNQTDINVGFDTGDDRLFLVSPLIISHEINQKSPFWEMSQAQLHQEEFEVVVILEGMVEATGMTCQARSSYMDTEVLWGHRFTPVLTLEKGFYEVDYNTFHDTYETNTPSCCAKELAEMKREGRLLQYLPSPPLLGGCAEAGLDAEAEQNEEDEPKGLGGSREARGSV
Protocol: as §1

[3] = biological target: T3, Kir3.1/Kir3.2 (Homo sapiens, UniProt P48051+P48549); assay: Thallium flux selectivity assay Kir3.1/Kir3.2
T3 construct: expressed in transfected cells
T3 sequence (P48549 1-501): T2 sequence (P48549 1-501)
T3 sequence (P48051 1-423): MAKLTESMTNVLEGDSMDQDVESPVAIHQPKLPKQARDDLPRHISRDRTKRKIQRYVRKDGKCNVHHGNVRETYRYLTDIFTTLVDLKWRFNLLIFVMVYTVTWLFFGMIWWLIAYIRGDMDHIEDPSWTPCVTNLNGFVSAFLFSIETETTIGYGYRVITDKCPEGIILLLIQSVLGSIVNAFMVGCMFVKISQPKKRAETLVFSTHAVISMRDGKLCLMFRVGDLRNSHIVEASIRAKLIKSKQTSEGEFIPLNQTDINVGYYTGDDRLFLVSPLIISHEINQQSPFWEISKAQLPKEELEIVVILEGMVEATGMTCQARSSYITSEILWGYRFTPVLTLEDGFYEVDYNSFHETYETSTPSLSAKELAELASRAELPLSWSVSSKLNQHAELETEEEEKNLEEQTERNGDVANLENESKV
Protocol: as §1

Measured: pIC50

Cc1nc(-c2cccs2)sc1CNC(=O)Nc1cccs1 [VU0542270]
< 4.52: all assays above
